Experimental data from patent US20240158446A1, “CYCLIC COMPOUND HAVING SELECTIVE INHIBITORY ACTION ON KRAS OVER HRAS AND NRAS” (CHUGAI SEIYAKU KABUSHIKI KAISHA, priority 2021, published 2024).
*1 amine or outer side, *2 acyl side, *3 side chain or, on linkers, in order; H or OH if unused. Where a SMILES comes first, the peptide text is derived from it. Bridges are numbered along the chain shown (N, C = ends). [ ]: non-standard residue; d: D form. The star is where a group is joined. hPhe(3-Cl-4-CF3) = N[C@@H](CCc1ccc(C(F)(F)F)c(Cl)c1)C(=O)O; NPrPhe(4-CF3) = CCCN[C@@H](Cc1ccc(C(F)(F)F)cc1)C(=O)O; X9 = CCCN([C@@H](Cc1ccc(F)cc1)C(=O)[*:2])[*:1]; X43 = CCCN([C@@H](Cc1ccccc1)C(=O)[*:2])[*:1]; NEtPhe(4-F) = CCN[C@@H](Cc1ccc(F)cc1)C(=O)O; NMePhe(4-F) = CN[C@@H](Cc1ccc(F)cc1)C(=O)O; NMeGly(cPent) = CN[C@H](C(=O)O)C1CCCC1; Pro(4,4-F2) = O=C(O)[C@@H]1CC(F)(F)CN1; NEtPhe = CCN[C@@H](Cc1ccccc1)C(=O)O; NMeGly(cBu) = CN[C@H](C(=O)O)C1CCC1; NMeD = CN[C@@H](CC(=O)O)C(=O)O; NMeL = CN[C@@H](CC(C)C)C(=O)O; NMeNva = CCC[C@H](NC)C(=O)O; NMeAbu = CC[C@H](NC)C(=O)O; Morpholide = C1CN(*)CCO1; NMeA = CN[C@@H](C)C(=O)O; Ac5c = NC1(C(=O)O)CCCC1; Aze = O=C(O)[C@@H]1CCN1; Ac4c = NC1(C(=O)O)CCC1; Sar = CNCC(=O)O

What was measured:
[1] = molecular target: GDP-bound KRAS wild-type protein (Homo sapiens, UniProt P01116); assay: Binding to KRAS by surface plasmon resonance (SPR), Single Cycle Kinetics; settings: SPR Single Cycle Kinetics, GDP-bound KRAS wild-type protein, 1:1 binding model; read-out: KRAS KD
Chain of GDP-bound KRAS wild-type protein (P01116 whole entry): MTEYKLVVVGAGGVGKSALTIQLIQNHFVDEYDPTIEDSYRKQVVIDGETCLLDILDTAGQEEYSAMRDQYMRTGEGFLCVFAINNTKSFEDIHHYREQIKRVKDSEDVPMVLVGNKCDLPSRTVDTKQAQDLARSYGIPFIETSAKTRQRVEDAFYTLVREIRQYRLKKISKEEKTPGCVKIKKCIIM

[2] = molecular target: GDP-bound NRAS wild-type protein (Homo sapiens, UniProt P01111); assay: Binding to NRAS by surface plasmon resonance (SPR), Single Cycle Kinetics; settings: SPR, GDP-bound NRAS wild-type protein vs GDP-bound KRAS wild-type protein
Chain of GDP-bound NRAS wild-type protein (P01111 whole entry): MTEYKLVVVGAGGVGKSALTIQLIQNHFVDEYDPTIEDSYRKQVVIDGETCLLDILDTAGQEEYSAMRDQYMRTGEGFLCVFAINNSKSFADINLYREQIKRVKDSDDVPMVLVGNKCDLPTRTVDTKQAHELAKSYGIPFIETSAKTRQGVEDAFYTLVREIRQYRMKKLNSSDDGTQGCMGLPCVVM

[3] = molecular target: GDP-bound HRAS wild-type protein (Homo sapiens, UniProt P01112); assay: Binding to HRAS by surface plasmon resonance (SPR), Single Cycle Kinetics; settings: SPR, GDP-bound HRAS wild-type protein vs GDP-bound KRAS wild-type protein
Chain of GDP-bound HRAS wild-type protein (P01112 whole entry): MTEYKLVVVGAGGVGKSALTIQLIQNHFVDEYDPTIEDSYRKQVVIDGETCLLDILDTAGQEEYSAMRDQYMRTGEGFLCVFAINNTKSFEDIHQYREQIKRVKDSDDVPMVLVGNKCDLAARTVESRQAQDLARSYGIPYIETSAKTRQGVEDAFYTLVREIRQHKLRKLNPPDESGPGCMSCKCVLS

Structure (SMILES)	Kd [1]	NRAS/KRAS (ratio of KD value for NRAS to KD value for KRAS) [2]	HRAS/KRAS (ratio of KD value for HRAS to KD value for KRAS) [3]
CCCN1C(=O)[C@@H]2CCN2C(=O)[C@H](C)N(C)C(=O)[C@H]([C@@H](C)CC)NC(=O)[C@H](C2CCC2)N(C)C(=O)C[C@@H](C(=O)N2CCOCC2)N(C)C(=O)[C@H](C2CCCC2)N(C)C(=O)C2(CCCC2)NC(=O)[C@@H]2CC(F)(F)CN2C(=O)[C@H](CCc2ccc(C(F)(F)F)c(Cl)c2)NC(=O)CN(C)C(=O)[C@@H]1Cc1ccc(C(F)(F)F)cc1 [PP0204] ([NMeGly(cBu)]I[NMeA][Aze][NPrPhe(4-CF3)][Sar][hPhe(3-Cl-4-CF3)][Pro(4,4-F2)][Ac5c][NMeGly(cPent)][NMeD]-Morpholide; lactam N-11)	210 pM	C (A compound having a KD ratio of 0.1 or more and less than 3 is denoted as C)	C (A compound having a KD ratio of 0.1 or more and less than 3 is denoted as C)
CCC[C@H]1C(=O)N[C@@H]([C@@H](C)CC)C(=O)N(C)[C@@H](C)C(=O)N2CC[C@H]2C(=O)N(CCC)[C@@H](Cc2ccc(C(F)(F)F)cc2)C(=O)N(C)CC(=O)N[C@@H](CCc2ccc(C(F)(F)F)c(Cl)c2)C(=O)N2CC(F)(F)C[C@H]2C(=O)NC2(CCCC2)C(=O)N(C)[C@@H](C2CCCC2)C(=O)N(C)[C@H](C(=O)N2CCOCC2)CC(=O)N1C [PP0205] ([NMeNva]I[NMeA][Aze][NPrPhe(4-CF3)][Sar][hPhe(3-Cl-4-CF3)][Pro(4,4-F2)][Ac5c][NMeGly(cPent)][NMeD]-Morpholide; lactam N-11)	110 pM	C (A compound having a KD ratio of 0.1 or more and less than 3 is denoted as C)	C (A compound having a KD ratio of 0.1 or more and less than 3 is denoted as C)
CCCN1C(=O)[C@@H]2CCN2C(=O)[C@H](C)N(C)C(=O)[C@H]([C@@H](C)CC)NC(=O)[C@H](CC)N(C)C(=O)C[C@@H](C(=O)N2CCOCC2)N(C)C(=O)[C@H](C2CCCC2)N(C)C(=O)C2(CCCC2)NC(=O)[C@@H]2CC(F)(F)CN2C(=O)[C@H](CCc2ccc(C(F)(F)F)c(Cl)c2)NC(=O)CN(C)C(=O)[C@@H]1Cc1ccc(C(F)(F)F)cc1 [PP0206] ([NMeAbu]I[NMeA][Aze][NPrPhe(4-CF3)][Sar][hPhe(3-Cl-4-CF3)][Pro(4,4-F2)][Ac5c][NMeGly(cPent)][NMeD]-Morpholide; lactam N-11)	71 pM	C (A compound having a KD ratio of 0.1 or more and less than 3 is denoted as C)	B (a compound having 3 or more and less than 10 is denoted as B)
CCCN1C(=O)CN(C)C(=O)CN(C)C(=O)[C@H]([C@@H](C)CC)NC(=O)[C@H](CC(C)C)N(C)C(=O)C[C@@H](C(=O)N2CCOCC2)N(C)C(=O)[C@H](C2CCCC2)N(C)C(=O)C2(CCC2)NC(=O)[C@@H]2CC(F)(F)CN2C(=O)[C@H](CCc2ccc(C(F)(F)F)c(Cl)c2)NC(=O)CN(C)C(=O)[C@@H]1Cc1ccc(C(F)(F)F)cc1 [PP0207] ([NMeL]I[Sar][Sar][NPrPhe(4-CF3)][Sar][hPhe(3-Cl-4-CF3)][Pro(4,4-F2)][Ac4c][NMeGly(cPent)][NMeD]-Morpholide; lactam N-11)	66 pM	B (a compound having 3 or more and less than 10 is denoted as B)	C (A compound having a KD ratio of 0.1 or more and less than 3 is denoted as C)
CCCN1C(=O)[C@@H]2CCN2C(=O)[C@H](C)N(C)C(=O)[C@H]([C@@H](C)CC)NC(=O)[C@H](CC(C)C)N(C)C(=O)C[C@@H](C(=O)N2CCOCC2)N(C)C(=O)[C@H](C2CCCC2)N(C)C(=O)C2(CCC2)NC(=O)[C@@H]2CC(F)(F)CN2C(=O)[C@H](CCc2ccc(C(F)(F)F)c(Cl)c2)NC(=O)CN(C)C(=O)[C@@H]1Cc1ccc(C(F)(F)F)cc1 [PP0208] ([NMeL]I[NMeA][Aze][NPrPhe(4-CF3)][Sar][hPhe(3-Cl-4-CF3)][Pro(4,4-F2)][Ac4c][NMeGly(cPent)][NMeD]-Morpholide; lactam N-11)	260 pM	C (A compound having a KD ratio of 0.1 or more and less than 3 is denoted as C)	C (A compound having a KD ratio of 0.1 or more and less than 3 is denoted as C)
CC[C@H](C)[C@@H]1NC(=O)[C@H](CC(C)C)N(C)C(=O)C[C@@H](C(=O)N2CCOCC2)N(C)C(=O)[C@H](C2CCCC2)N(C)C(=O)C2(CCCC2)NC(=O)[C@@H]2CCCN2C(=O)[C@H](CCc2ccc(C(F)(F)F)c(Cl)c2)NC(=O)CN(C)C(=O)[C@H](Cc2ccccc2)N(CC)C(=O)CN(C)C(=O)CN(C)C1=O [PP0210] ([NMeL]I[Sar][Sar][NEtPhe][Sar][hPhe(3-Cl-4-CF3)]P[Ac5c][NMeGly(cPent)][NMeD]-Morpholide; lactam N-11)	520 pM	C (A compound having a KD ratio of 0.1 or more and less than 3 is denoted as C)	C (A compound having a KD ratio of 0.1 or more and less than 3 is denoted as C)
CCCN1C(=O)CN(C)C(=O)CN(C)C(=O)[C@H]([C@@H](C)CC)NC(=O)[C@H](CC(C)C)N(C)C(=O)C[C@@H](C(=O)N2CCOCC2)N(C)C(=O)[C@H](C2CCCC2)N(C)C(=O)C2(CCCC2)NC(=O)[C@@H]2CCCN2C(=O)[C@H](CCc2ccc(C(F)(F)F)c(Cl)c2)NC(=O)CN(C)C(=O)[C@@H]1Cc1ccccc1 [PP0211] ([NMeL]I[Sar][Sar][X43][Sar][hPhe(3-Cl-4-CF3)]P[Ac5c][NMeGly(cPent)][NMeD]-Morpholide; lactam N-11)	270 pM	B (a compound having 3 or more and less than 10 is denoted as B)	C (A compound having a KD ratio of 0.1 or more and less than 3 is denoted as C)
CC[C@H](C)[C@@H]1NC(=O)[C@H](CC(C)C)N(C)C(=O)C[C@@H](C(=O)N2CCOCC2)N(C)C(=O)[C@H](C2CCCC2)N(C)C(=O)C2(CCCC2)NC(=O)[C@@H]2CCCN2C(=O)[C@H](CCc2ccc(C(F)(F)F)c(Cl)c2)NC(=O)CN(C)C(=O)[C@H](Cc2ccc(F)cc2)N(C)C(=O)CN(C)C(=O)CN(C)C1=O [PP0212] ([NMeL]I[Sar][Sar][NMePhe(4-F)][Sar][hPhe(3-Cl-4-CF3)]P[Ac5c][NMeGly(cPent)][NMeD]-Morpholide; lactam N-11)	98 pM	C (A compound having a KD ratio of 0.1 or more and less than 3 is denoted as C)	C (A compound having a KD ratio of 0.1 or more and less than 3 is denoted as C)
CC[C@H](C)[C@@H]1NC(=O)[C@H](CC(C)C)N(C)C(=O)C[C@@H](C(=O)N2CCOCC2)N(C)C(=O)[C@H](C2CCCC2)N(C)C(=O)C2(CCCC2)NC(=O)[C@@H]2CCCN2C(=O)[C@H](CCc2ccc(C(F)(F)F)c(Cl)c2)NC(=O)CN(C)C(=O)[C@H](Cc2ccc(F)cc2)N(CC)C(=O)CN(C)C(=O)CN(C)C1=O [PP0213] ([NMeL]I[Sar][Sar][NEtPhe(4-F)][Sar][hPhe(3-Cl-4-CF3)]P[Ac5c][NMeGly(cPent)][NMeD]-Morpholide; lactam N-11)	250 pM	C (A compound having a KD ratio of 0.1 or more and less than 3 is denoted as C)	C (A compound having a KD ratio of 0.1 or more and less than 3 is denoted as C)
CCCN1C(=O)CN(C)C(=O)CN(C)C(=O)[C@H]([C@@H](C)CC)NC(=O)[C@H](CC(C)C)N(C)C(=O)C[C@@H](C(=O)N2CCOCC2)N(C)C(=O)[C@H](C2CCCC2)N(C)C(=O)C2(CCCC2)NC(=O)[C@@H]2CCCN2C(=O)[C@H](CCc2ccc(C(F)(F)F)c(Cl)c2)NC(=O)CN(C)C(=O)[C@@H]1Cc1ccc(F)cc1 [PP0214] ([NMeL]I[Sar][Sar][X9][Sar][hPhe(3-Cl-4-CF3)]P[Ac5c][NMeGly(cPent)][NMeD]-Morpholide; lactam N-11)	130 pM	B (a compound having 3 or more and less than 10 is denoted as B)	C (A compound having a KD ratio of 0.1 or more and less than 3 is denoted as C)
CC[C@H](C)[C@@H]1NC(=O)[C@H](CC(C)C)N(C)C(=O)C[C@@H](C(=O)N2CCOCC2)N(C)C(=O)[C@H](C2CCCC2)N(C)C(=O)C2(CCCC2)NC(=O)[C@@H]2CCCN2C(=O)[C@H](CCc2ccc(C(F)(F)F)c(Cl)c2)NC(=O)CN(C)C(=O)[C@H](Cc2ccccc2)N(CC)C(=O)[C@@H]2CCN2C(=O)[C@H](C)N(C)C1=O [PP0215] ([NMeL]I[NMeA][Aze][NEtPhe][Sar][hPhe(3-Cl-4-CF3)]P[Ac5c][NMeGly(cPent)][NMeD]-Morpholide; lactam N-11)	410 pM	C (A compound having a KD ratio of 0.1 or more and less than 3 is denoted as C)	C (A compound having a KD ratio of 0.1 or more and less than 3 is denoted as C)
CCCN1C(=O)[C@@H]2CCN2C(=O)[C@H](C)N(C)C(=O)[C@H]([C@@H](C)CC)NC(=O)[C@H](CC(C)C)N(C)C(=O)C[C@@H](C(=O)N2CCOCC2)N(C)C(=O)[C@H](C2CCCC2)N(C)C(=O)C2(CCCC2)NC(=O)[C@@H]2CCCN2C(=O)[C@H](CCc2ccc(C(F)(F)F)c(Cl)c2)NC(=O)CN(C)C(=O)[C@@H]1Cc1ccccc1 [PP0216] ([NMeL]I[NMeA][Aze][X43][Sar][hPhe(3-Cl-4-CF3)]P[Ac5c][NMeGly(cPent)][NMeD]-Morpholide; lactam N-11)	280 pM	C (A compound having a KD ratio of 0.1 or more and less than 3 is denoted as C)	B (a compound having 3 or more and less than 10 is denoted as B)
